{"source": "patent US20210261539A1", "about": "“COMPOUND HAVING BET INHIBITORY ACTIVITY AND PREPARATION METHOD AND USE THEREFOR” (Shanghai Haihe Pharmaceutical Co., Ltd., priority 2018, published 2021)", "data": [{"target": "T1, BRD4 BD1 (Homo sapiens, UniProt O60885)", "T1 construct": "Protein BRD4 BD1 used in the assay was purchased from Active Motif (cat. 31380); purchased Active Motif 31380", "test": "HTRF in vitro enzyme activity assay, inhibition of BRD4 BD1 binding to acetylated H4 peptide", "details": "IC50 values of the compounds against BRD4 BD1 binding; class symbols A/B/C", "procedure,_shortened": "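Recombinant human BRD4 BD1 (30 nM final) incubated with compound and biotinylated tetra-acetylated H4(1-21) peptide, 30 min at 37 °C; 5-point 1:5 dilution series, 0.1% DMSO final. HTRF read after 3 h at RT with SA-XL665 and Eu(K)-labelled antibody; IC50 derived.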", "units": {"IC50": "nM"}, "values": [{"smiles": "CC1C(=O)N(C)c2ccc(N3C(=O)c4ccccc4C3c3cccnc3)nc2N1C1(C)CC1", "note": "(stereo not drawn) [Example A47-P4, 1,3-dimethyl-4-(1-methylcyclopropyl)-6-(1-oxo-3-(pyridin-3-yl)isoindolin-2-yl)-3,4-dihydropyrido [2,3-b]pyrazin-2(1H)-one]", "IC50": "≤ 10"}, {"smiles": "C[C@@H]1C(=O)N(C)c2ccc(N3C(=O)c4ccccc4C3c3cccnc3)nc2N1C", "note": "(stereo partly drawn) [Example A48-P4, (3R)-1,3,4-trimethyl-6-(1-oxo-3-(pyridin-3-yl)isoindolin-2-yl)-3,4-dihydropyrido [2,3-b]pyrazin-2-(1H)-one]", "IC50": "≤ 10"}, {"smiles": "CCN1C(=O)C(C)N(C2CC2)c2nc(N3C(=O)c4ccccc4C3c3cccnc3)ccc21", "note": "(stereo not drawn) [Example A49-P4, 4-cyclopropyl-1-ethyl-3-methyl-6-(1-oxo-3-(pyridin-3-yl)isoindolin-2-yl)-3,4-dihydropyrido [2,3-b]pyrazin-2-(1H)-one]", "IC50": "≤ 10"}, {"smiles": "[2H]C([2H])([2H])N1C(=O)C(C)N(C2CC2)c2nc(N3C(=O)c4ccccc4C3c3ccc(F)cc3)ccc21", "note": "(stereo not drawn) [Example A51-P3, 4-cyclopropyl-6-(1-(4-fluorophenyl)-3-oxoisoindolin-2-yl)-3-methyl-1-(trideuteromethyl)-3,4-dihydropyrido [2,3-B]pyrazin2(1 H)-one]", "IC50": "≤ 10"}, {"smiles": "CC1C(=O)N(CCF)c2ccc(N3C(=O)c4ccccc4C3c3cccnc3)nc2N1C1CC1", "note": "(stereo not drawn) [Example A52-P4, 4-cyclopropyl-1-(2-fluoroethyl)-3-methyl-6-(1-oxo-3-(pyridin-3-yl)isoindolin-2-yl)-3,4-dihydropyrido [2,3-b]pyrazin-2(1H)-one]", "IC50": "≤ 10"}, {"smiles": "CC1C(=O)N(CC(F)F)c2ccc(N3C(=O)c4ccccc4C3c3cccnc3)nc2N1C1CC1", "note": "(stereo not drawn) [Example A53-P4, 4-cyclopropyl-1-(2,2-difluoroethyl)-3-methyl-6-(1-oxo-3-(pyridin-3-yl)isoindolin-2-yl)-3,4-dihydropyrido [2,3-b]pyrazin-2(1H)-one]", "IC50": "≤ 10"}, {"smiles": "CC1C(=O)N(C)c2ccc(N3C(=O)c4ccccc4C3c3cccnc3)nc2N1C1COC1", "note": "(stereo not drawn) [Example A54-P4, 1,3-dimethyl-4-(oxetan-3-yl)-6-(1-oxo-3-(pyridin-3-yl)isoindolin-2-yl)-3,4-dihydropyrido [2,3-b]pyrazin-2(1H)-one]", "IC50": "≤ 10"}, {"smiles": "CC1C(=O)N(C)c2ccc(N3C(=O)c4ccccc4C3c3ccccc3)nc2N1CC(F)(F)F", "note": "(stereo not drawn) [Example A56-P1, 1,3-dimethyl-6-(1-oxo-3-phenylisoindolin-2-yl)-4-(2,2,2-trifluoroethyl)-3,4-dihydropyrido [2,3-b]pyrazin-2(1H)-one]", "IC50": "≤ 10"}, {"smiles": "CC(C)N1c2nc(N3C(=O)c4ccccc4C3c3cccnc3)ccc2N(C)C(=O)C1C", "note": "(stereo not drawn) [Example A57-P3]", "IC50": "≤ 10"}, {"smiles": "CC1C(=O)N(C)c2ccc(N3C(=O)c4ccccc4C3c3ccncc3)nc2N1C1CC1", "note": "(stereo not drawn) [Example A58-P1, 4-cyclopropyl-1,3-dimethyl-6-(1-oxo-3-(pyridin-4-yl)isoindolin-2-yl)-3,4-dihydropyrido[2,3-b]pyrazin-2(1H)-one]", "IC50": "≤ 10"}, {"smiles": "CC1C(=O)N(C)c2ccc(N3C(=O)c4ccccc4C3c3cccnc3)nc2N1CC(F)(F)F", "note": "(stereo not drawn) [Example A59-P2, 1,3-dimethyl-6-(1-oxo-3-(pyridin-3-yl)isoindolin-2-yl)-4-(2,2,2-trifluoroethyl)-3,4-dihydropyrido[2,3-b]pyrazin-2(1H)-one]", "IC50": "≤ 10"}, {"smiles": "CC[S+]([O-])c1cccc2c1C(=O)N(c1ccc3c(n1)N(C1CC1)C(C)C(=O)N3C)C2c1cccnc1", "note": "(stereo not drawn) [Example A73, 4-cyclopropyl-6-(4-(ethylsulfinyl)-3-oxo-1-(pyridin-3-yl)isoindolin-2-yl)-1,3-dimethyl-3,4-dihydropyrido[2,3-b]pyrazin-2(1H)-one]", "IC50": "≤ 10"}, {"smiles": "CC1C(=O)N(C)c2ccc(N3C(=O)c4c(C(=O)NC5CC5)cccc4C3c3ccc(F)cc3)nc2N1CC(F)(F)F", "note": "(stereo not drawn) [Example A85-P4, N-cyclopropyl-2-(1,3-dimethyl-2-oxo-4-(2,2,2-trifluoroethyl)-1,2,3,4-tetrahydropyrido[2,3-b]pyrazin-6-fluorophenyl)-3-oxoisoindoline-4-carboxamide]", "IC50": "≤ 10"}, {"smiles": "C[C@@H]1C(=O)N(C)c2ccc(N3C(=O)c4c(C(=O)NC5CC5)cccc4C3c3ccc(F)cc3)nc2N1C", "note": "(stereo partly drawn) [Example A86-P3, N-cyclopropyl-1-(4-fluorophenyl)-3-oxo-2-((R)-1,3,4-trimethyl-2-oxo-1,2,3,4-tetrahydropyrido[2,3-b]pyrazin-6-yl)isoindoline-4-carboxamide]", "IC50": "≤ 10"}, {"smiles": "C[C@@H]1C(=O)N(C)c2ccc(N3C(=O)c4c(C(=O)NC5CC5)cccc4C3c3ccccc3)nc2N1C", "note": "(stereo partly drawn) [Example A87-P4, N-cyclopropyl-3-oxo-1-phenyl-2-((R)-1,3,4-trimethyl-2-oxo-1,2,3,4-tetrahydropyrido[2,3-b]pyrazin-6-yl)isoindoline-4-carboxamide]", "IC50": "≤ 10"}, {"smiles": "C[C@@H]1C(=O)N(C)c2cnc(N3C(=O)c4ccccc4C3c3cccnc3)nc2N1C", "note": "(stereo partly drawn) [Example A90-P4, (7R)-5,7,8-trimethyl-2-(1-oxo-3-(pyridin-3-yl)isoindolin-2-yl)-7,8-dihydropteridin-6(5H)-one]", "IC50": "≤ 10"}, {"smiles": "C[C@@H]1C(=O)N(C)c2cnc(N3C(=O)c4c(cccc4C(C)(C)O)C3c3ccc(F)cc3)nc2N1C1CC1", "note": "(stereo partly drawn) [Example A94-P4, (7R)-8-cyclopropyl-2-(3-oxo-1-(4-fluorophenyl)-4-(2-hydroxyprop-2-yl)isoindolin-2-yl)-5,7-dimethyl-7,8-dihydropteridin-6(5H)-one]", "IC50": "≤ 10"}, {"smiles": "C[C@@H]1C(=O)N(C)c2cnc(N3C(=O)c4cc(F)ccc4C3c3cccnc3)nc2N1C1CC1", "note": "(stereo partly drawn) [Example A95-P4, (7R)-8-cyclopropyl-2-(5-fluoro-3-oxo-1-(pyridin-3-yl)isoindolin-2-yl)-5,7 dimethyl-7,8-dihydropteridin-6(5H)-one]", "IC50": "≤ 10"}, {"smiles": "C[C@@H]1C(=O)N(C)c2cnc(N3C(=O)c4c(cccc4S(C)(=O)=O)C3c3cccnc3)nc2N1C", "note": "(stereo partly drawn) [Example A103-P1, (7R)-5,7,8-trimethyl-2-(4-(methylsulfonyl)-3-oxo-1-(pyridin-3-yl)isoindolin-2-yl)-7,8-dihydropteridin-6(5H)-one]", "IC50": "≤ 10"}, {"smiles": "C[C@@H]1C(=O)N(C)c2cnc(N3C(=O)c4c(cccc4S(C)(=O)=O)C3(O)c3cccnc3)nc2N1C", "note": "(stereo partly drawn) [Example A104-P3, (7R)-2-(1-hydroxy-4-(methylsulfonyl)-3-oxo-1-(pyridin-3-yl)isoindolin-2-yl)-5,7,8-trimethyl-7,8-dihydropteridin-6(5H)-one]", "IC50": "≤ 10"}, {"smiles": "CCN1C(=O)[C@@H](C)Oc2nc(N3C(=O)c4ccccc4C3c3cccnc3)ccc21", "note": "(stereo partly drawn) [Example A108-P3, (R)-1-ethyl-3-methyl-6-(1-oxo-3-(pyridin-3-yl)isoindolin-2-yl)-1H-pyrido[2,3-B][1,4]oxazin-2(3H)-one]", "IC50": "10 to 100"}, {"smiles": "CCN1C(=O)[C@@H](C)Oc2nc(N3C(=O)c4ccccc4C3c3ccc(Cl)cc3)ccc21", "note": "(stereo partly drawn) [Example A109-P3, (R)-6-(1-(4-chlorophenyl)-3-oxoisoindolin-2-yl)-1-ethyl-3-methyl-1H-pyrido[2,3-B][1,4]oxazin-2-(3H)-one]", "IC50": "10 to 100"}, {"smiles": "Cc1ccc(C2c3ccccc3C(=O)N2c2nc3c(cc2F)N(C)C(=O)[C@@H](C)O3)cn1", "note": "(stereo partly drawn) [Example A114-P3, (R)-7-fluoro-1,3-dimethyl-6-(1-(6-methylpyridin-3-yl)-3-oxoisoindolin-2-yl)-1H-pyrido[2,3-b][1,4]oxazin-2(3H)-one]", "IC50": "100 to 1000"}, {"smiles": "C[C@H]1Oc2nc(N3C(=O)c4cc(F)ccc4C3c3cccnc3)ncc2N(C)C1=O", "note": "(stereo partly drawn) [Example A116-P3, (7R)-2-(5-fluoro-3-oxo-1-(pyridin-3-yl)isoindolin-2-yl)-5,7-dimethyl-5H-pyrimido[4,5-B][1,4]oxazin-6(7H)-one]", "IC50": "100 to 1000"}, {"smiles": "C[C@H]1Oc2cc(N3C(=O)c4cc(F)ccc4C3c3cccnc3)ncc2N(C)C1=O", "note": "(stereo partly drawn) [Example A117, (2R)-7-(5-fluoro-3-oxo-1-(pyridin-3-yl)isoindolin-2-yl)-2,4-dimethyl-2H-pyrido[4,3-b][1,4]oxazin-3(4H)-one]", "IC50": "100 to 1000"}, {"smiles": "C[C@H]1Oc2nc(N3C(=O)c4cc(F)ccc4C3c3cccnc3)c(F)cc2N(C)C1=O", "note": "(stereo partly drawn) [Example A118, (3R)-7-fluoro-6-(5-fluoro-3-oxo-1-(pyridin-3-yl)isoindolin-2-yl)-1,3-dimethyl-1H-pyrido[2,3-B][1,4]oxazin-2(3H)-one]", "IC50": "100 to 1000"}]}, {"tested_on": "human NMC-derived xenograft", "test": "not given", "details": "human NMC-derived xenograft mouse model; cited from earlier work", "values": [{"smiles": "Cc1sc2c(c1C)C(c1ccc(Cl)cc1)=N[C@@H](CC(=O)OC(C)(C)C)c1nnc(C)n1-2", "note": "[JQ1]", "tumor squamous differentiation and growth": "inhibited tumor squamous differentiation and growth and caused regression"}]}]}
